Assay results: the NIST ThermoML archive (doi:10.1021/je4003916)

Experiment: refractive index (Na D-line) (dimensionless); xn = mol fraction of the nth substance listed
Settings: 101 kPa, Liquid, Dipping refractometry (monochromatic)

C1CCOC1 [tetrahydrofuran] + CCCCO
refractive index
Settings	x1 = 0.1001	x1 = 0.2003	x1 = 0.3	x1 = 0.4003	x1 = 0.5	x1 = 0.6001	x1 = 0.7003	x1 = 0.8006	x1 = 0.9002	x1 = 1
288.15 K	1.402	1.4028	1.4036	1.4043	1.4051	1.4059	1.4068	1.4077	1.4087	1.4096
293.15 K	1.3999	1.4006	1.4013	1.4021	1.4028	1.4035	1.4044	1.4052	1.4061	1.407
298.15 K	1.3978	1.3985	1.3991	1.3998	1.4004	1.4011	1.4019	1.4027	1.4035	1.4043
303.15 K	1.3957	1.3963	1.3969	1.3974	1.398	1.3987	1.3994	1.4001	1.4009	1.4016
308.15 K	1.3936	1.3941	1.3946	1.3951	1.3957	1.3962	1.3969	1.3975	1.3983	1.399
313.15 K	1.3914	1.3919	1.3923	1.3928	1.3933	1.3938	1.3943	1.3949	1.3956	1.3963
318.15 K	1.3893	1.3897	1.3901	1.3905	1.3909	1.3913	1.3918	1.3923	1.3929	1.3936
323.15 K	1.3871	1.3874	1.3878	1.3881	1.3885	1.3888	1.3893	1.3897	1.3903	1.3909
